Drawing on patent US20250188059A1, “NOVEL COMPOUND AND USE THEREOF FOR INHIBITING CHECKPOINT KINASE 2” (ARUM THERAPEUTICS INC, priority 2022, published 2025), this text covers IC50 for 20 compounds.

Assay [1] deals with human breast cancer cell line MCF-7. As to the kind of experiment: Cancer cell growth inhibition test (CellTiter-Glo). The format is cell-based. The conditions noted are these: MCF-7, 72 hours. As for the experimental part:
The human breast cancer cell line MCF-7 was treated with trypsin and harvested. The number of cells was counted, and about 3000 cells/80 μl per well were inoculated into a 96 well plate (Corning) and then incubated in a 37° C. incubator for 24 hours. Thereafter, the example compounds were diluted in a culture solution at various concentrations, and each well was treated with 20 μl and stored in a cell culture incubator for 72 hours. In the case of the group administered in combination, the example compounds and cisplatin or doxorubicin were diluted in a culture solution at various concentrations, and each well was treated with 20 μl. After 72 hours, each well was treated with 30 μl of CellTiter-Glo solution (Promega), and the luminescence was read on a Victor3 multi label reader (PerkinElmer).
Relative viability (%)=(value of each test well/value of well treated with DMSO alone)×100
The results obtained for each concentration for each example compound were the average values obtained from three wells, and PRIZM software was used for analysis of the results.

For assay [2], the target named is Chk1 kinase (Homo sapiens (Human), UniProt O14757). As to the kind of experiment: Chk1 kinase inhibitory activity (LanthaScreen TR-FRET). The format is biochemical. The conditions noted are these: graded. The method, then:
(§1) The compounds of Examples 1 to 66 were diluted at various concentrations and transferred to a 384-well plate by 5 μl, and 10 μl of a mixed solution (2×) of Chk1 kinase (Thermo, P3040) or Chk2 kinase (Thermo, PV3367) and a substrate (Thermo, PV3508) was added to wells treated with the compounds. 5 μl of an ATP solution at a 4× concentration was added to the test well and reacted at room temperature for 1 hour. 20 μl of LanthaScreen Terbium-CREB p-Ser 133 antibody (Thermo, PV3542) was added to the reaction well and incubated at room temperature for 30 minutes. Conversion data was measured by an EnVision 2014 multi label reader (PerkinElmer). The activity for each concentration was determined by the ratio (FRET ratio=FR) of the value obtained by dividing the value at 520 nm by the value at 490 nm among the emission wavelength values for each wavelength (Em520/Em490). The results obtained for each concentration of the compounds were the average values obtained in two wells, and the IC50 values of the compounds were calculated using PRIZM software for analysis of the results. IC50 in Table 7 was graded as follows.
A general note: In TR-FRET formats the signal depends on donor and acceptor labels being close together.

For assay [3], the target named is Chk2 kinase (Homo sapiens (Human), UniProt O96017). As to the kind of experiment: Chk2 kinase inhibitory activity (LanthaScreen TR-FRET). The conditions noted are these: graded. The format is biochemical. The method, then: as §1
[4] abbreviates: Homo sapiens, MCF7, 72 h, graded, read-out: Celltiter glo analysis (IC50).
Setting [5] is: Homo sapiens, MCF7, 72 h, alone, read-out: Administered alone (IC50).
Setting [6] is: combination with cisplatin, read-out: Administered in combination with cisplatin (IC50).
[7] abbreviates: combination with doxorubicin, read-out: Administered in combination with doxorubicin (IC50).

Where two headings read alike, the source gives them in different places.

Chk1 kinase, sequence (O14757 whole entry): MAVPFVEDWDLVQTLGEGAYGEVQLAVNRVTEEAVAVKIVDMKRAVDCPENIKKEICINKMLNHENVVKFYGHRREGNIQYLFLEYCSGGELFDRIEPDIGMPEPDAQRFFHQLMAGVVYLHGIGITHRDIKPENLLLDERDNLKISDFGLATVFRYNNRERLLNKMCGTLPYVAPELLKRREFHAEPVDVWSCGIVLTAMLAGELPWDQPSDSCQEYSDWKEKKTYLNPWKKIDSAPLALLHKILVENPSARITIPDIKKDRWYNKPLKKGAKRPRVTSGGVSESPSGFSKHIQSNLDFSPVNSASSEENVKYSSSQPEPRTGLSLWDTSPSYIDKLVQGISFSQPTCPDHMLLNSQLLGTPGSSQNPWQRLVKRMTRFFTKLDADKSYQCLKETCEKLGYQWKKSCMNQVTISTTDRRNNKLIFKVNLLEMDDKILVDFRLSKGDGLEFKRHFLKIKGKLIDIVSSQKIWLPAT
Chk2 kinase, sequence (O96017 whole entry): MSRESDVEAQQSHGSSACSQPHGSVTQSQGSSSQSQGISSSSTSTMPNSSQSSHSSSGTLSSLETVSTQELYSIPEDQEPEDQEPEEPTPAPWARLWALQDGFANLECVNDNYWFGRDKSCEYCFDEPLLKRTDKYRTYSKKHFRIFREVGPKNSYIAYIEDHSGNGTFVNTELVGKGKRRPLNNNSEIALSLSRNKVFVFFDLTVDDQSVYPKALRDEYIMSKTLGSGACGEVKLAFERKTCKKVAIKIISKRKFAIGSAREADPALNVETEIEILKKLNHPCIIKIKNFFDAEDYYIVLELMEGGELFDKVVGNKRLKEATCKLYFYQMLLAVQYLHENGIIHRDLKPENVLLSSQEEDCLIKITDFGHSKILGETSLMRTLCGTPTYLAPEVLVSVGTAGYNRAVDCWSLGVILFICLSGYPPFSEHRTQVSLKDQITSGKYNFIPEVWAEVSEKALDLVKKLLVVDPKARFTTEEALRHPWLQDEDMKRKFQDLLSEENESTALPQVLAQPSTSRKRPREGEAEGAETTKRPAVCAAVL

With `Nc1ncc(-c2ccnc(-c3cnn(CC(F)(F)F)c3)c2)nc1C(=O)N[C@@H]1CNCC[C@H]1O` [Example 14, 3-amino-N-((3R,4R)-4-hydroxypiperidin-3-yl)-6-(2-(1-(2,2,2-trifluoroethyl)-1H-pyrazol-4-yl)pyridin-4-yl)pyrazine-2-carboxamide], the IC50 – broadly, the concentration at which inhibition is half-maximal – is > 100000 nM in assay [1] (setting [4]), 100 to 1000 nM in assay [2] and 10 to 100 nM in assay [3].

Regarding `Nc1ncc(-c2ccnc(-c3cnn(CC(F)(F)F)c3)c2)nc1C(=O)N[C@@H]1CNC[C@@H](F)C1` [Example 15, 3-amino-N-((3S,5S)-5-fluoropiperidin-3-yl)-6-(2-(1-(2,2,2-trifluoroethyl)-1H-pyrazol-4-yl)pyridin-4-yl)pyrazine-2-carboxamide], the IC50 in assay [1] (setting [5]) is 11800 nM; in assay [1] (setting [4]), ≤ 10000 nM; in assay [1] (setting [6]), 2270 nM; in assay [1] (setting [7]), 3050 nM; in assay [2] it was 100 to 1000 nM; in assay [3], ≤ 10 nM.

With `Cn1cc(-c2cccc(-c3cnc(N)c(C(=O)N[C@H]4CCCNC4)n3)c2)cn1` [Example 16, (S)-3-amino-6-(3-(1-methyl-1H-pyrazol-4-yl)phenyl)-N-(piperidin-3-yl)pyrazine-2-carboxamide], the IC50 was 10000 to 100000 nM in assay [1] (setting [4]), 10 to 100 nM in assay [2] and ≤ 10 nM in assay [3].

As for `Cn1cc(-c2cccc(-c3cnc(N)c(C(=O)N[C@@H]4CNC[C@@H](F)C4)n3)c2)cn1` [Example 17, 3-amino-N-((3S,5S)-5-fluoropiperidin-3-yl)-6-(3-(1-methyl-1H-pyrazol-4-yl)phenyl)pyrazine-2-carboxamide], the concentration for half-maximal inhibition (IC50) was 10000 to 100000 nM in assay [1] (setting [4]), 10 to 100 nM in assay [2] and ≤ 10 nM in assay [3].

Consider `Cn1cc(-c2ccc(F)c(-c3cnc(N)c(C(=O)N[C@H]4CCCNC4)n3)c2)cn1` [Example 18, (S)-3-amino-6-(2-fluoro-5-(1-methyl-1H-pyrazol-4-yl)phenyl)-N-(piperidin-3-yl)pyrazine-2-carboxamide], for which the 50% inhibitory concentration (IC50) was 10000 to 100000 nM in assay [1] (setting [4]), > 1000 nM in assay [2] and 10 to 100 nM in assay [3].

`Cn1cc(-c2ccc(F)c(-c3cnc(N)c(C(=O)N[C@@H]4CNC[C@@H](F)C4)n3)c2)cn1` [Example 19, 3-amino-6-(2-fluoro-5-(1-methyl-1H-pyrazol-4-yl)phenyl)-N-((3S,5S)-5-fluoropiperidin-3-yl) pyrazine-2-carboxamide]: the IC50 in assay [1] (setting [4]) fell in the range of 10000 to 100000 nM; in assay [2], 100 to 1000 nM; in assay [3], 10 to 100 nM.

`Nc1ncc(-c2ccnc(-c3cnn(C4CC4)c3)c2)nc1C(=O)N[C@H]1CCCNC1` [Example 20, (S)-3-amino-6-(2-(1-cyclopropyl-1H-pyrazol-4-yl)pyridin-4-yl)-N-(piperidin-3-yl)pyrazine-2-carboxamide]: the IC50 in assay [1] (setting [4]) fell in the range of 10000 to 100000 nM; in assay [2], 10 to 100 nM; in assay [3], 10 to 100 nM.

Turning to `Nc1ncc(-c2ccnc(-c3cnn(CC(F)(F)F)c3)c2)nc1C(=O)N[C@H]1CCCNC1` [Example 21, (S)-3-amino-N-(piperidin-3-yl)-6-(2-(1-(2,2,2-trifluoroethyl)-1H-pyrazol-4-yl)pyridin-4-yl)pyrazine-2-carboxamide], the results for the IC50 in assay [1] (setting [4]), in assay [2] and in assay [3] were 10000 to 100000 nM, 10 to 100 nM and ≤ 10 nM, respectively.

With `N#CCn1cc(-c2cccc(-c3cnc(N)c(C(=O)N[C@@H]4CNCC[C@H]4O)n3)c2)cn1` [Example 25, 3-amino-6-(3-(1-(cyanomethyl)-1H-pyrazol-4-yl)phenyl)-N-((3R,4R)-4-hydroxypiperidin-3-yl)pyrazine-2-carboxamide], the IC50 in assay [1] (setting [4]) was > 100000 nM; in assay [2] it was > 1000 nM; in assay [3], 10 to 100 nM.

For the compound `N#CCn1cc(-c2cccc(-c3cnc(N)c(C(=O)N[C@@H]4CNC[C@@H](F)C4)n3)c2)cn1` [Example 26, 3-amino-6-(3-(1-(cyanomethyl)-1H-pyrazol-4-yl)phenyl)-N-((3S,5S)-5-fluoropiperidin-3-yl) pyrazine-2-carboxamide], the IC50 in assay [1] (setting [4]) is > 100000 nM; in assay [2] it was 100 to 1000 nM; in assay [3] it was 10 to 100 nM.

Turning to `N#CCn1cc(-c2cccc(-c3cnc(N)c(C(=O)N[C@H]4CCCNC4)n3)c2)cn1` [Example 27, (S)-3-amino-6-(3-(1-(cyanomethyl)-1H-pyrazol-4-yl)phenyl)-N-(piperidin-3-yl)pyrazine-2-carboxamide], the 50% inhibitory concentration (IC50) in assay [1] (setting [4]) is > 100000 nM; in assay [2], 10 to 100 nM; in assay [3], 10 to 100 nM.

For the compound `CC(C)(O)Cn1cc(-c2cccc(-c3cnc(N)c(C(=O)N[C@@H]4CNCC[C@H]4O)n3)c2)cn1` [Example 28, 3-amino-6-(3-(1-(2-hydroxy-2-methylpropyl)-1H-pyrazol-4-yl)phenyl)-N-((3R,4R)-4-hydroxypiperidin-3-yl)pyrazine-2-carboxamide], the IC50 in assay [1] (setting [4]) was > 100000 nM; in assay [2], > 1000 nM; in assay [3], ≤ 10 nM.

Regarding `CC(C)(O)Cn1cc(-c2cccc(-c3cnc(N)c(C(=O)N[C@@H]4CNC[C@@H](F)C4)n3)c2)cn1` [Example 29, 3-amino-N-((3S,5S)-5-fluoropiperidin-3-yl)-6-(3-(1-(2-hydroxy-2-methylpropyl)-1H-pyrazol-4-yl)phenyl)pyrazine-2-carboxamide], the IC50 in assay [1] (setting [4]) is 10000 to 100000 nM; in assay [2] it was 10 to 100 nM; in assay [3], ≤ 10 nM.

`CC(C)(O)Cn1cc(-c2cccc(-c3cnc(N)c(C(=O)N[C@H]4CCCNC4)n3)c2)cn1` [Example 30, (S)-3-amino-6-(3-(1-(2-hydroxy-2-methylpropyl)-1H-pyrazol-4-yl)phenyl)-N-(piperidin-3-yl)pyrazine-2-carboxamide]: the IC50 in assay [1] (setting [4]) is > 100000 nM; in assay [2], 10 to 100 nM; in assay [3], ≤ 10 nM.

With `Nc1ncc(-c2cc(-c3cnn(C4CC4)c3)ccc2F)nc1C(=O)N[C@H]1CCCNC1` [Example 31, (S)-3-amino-6-(5-(1-cyclopropyl-1H-pyrazol-4-yl)-2-fluorophenyl)-N-(piperidin-3-yl)pyrazine-2-carboxamide], the half-maximal inhibitory concentration (IC50) in assay [1] (setting [4]) was 10000 to 100000 nM; in assay [2], 100 to 1000 nM; in assay [3], 10 to 100 nM.

As for `CC(C)(O)Cn1cc(-c2cc(-c3cnc(N)c(C(=O)N[C@@H]4CNCC(F)(F)C4)n3)c(F)cn2)cn1` [Example 32, (S)-3-amino-N-(5,5-difluoropiperidin-3-yl)-6-(5-fluoro-2-(1-(2-hydroxy-2-methylpropyl)-1H-pyrazol-4-yl)pyridin-4-yl)pyrazine-2-carboxamide], the half-inhibitory concentration (IC50) in assay [1] (setting [5]) is 33100 nM; in assay [1] (setting [4]), 10000 to 100000 nM; in assay [1] (setting [6]), 4580 nM; in assay [1] (setting [7]), 910 nM; in assay [2] it was > 1000 nM; in assay [3], > 1000 nM.

Take `CC(C)(O)Cn1cc(-c2cc(-c3cnc(N)c(C(=O)N[C@@H]4CNCC(F)(F)C4)n3)ccn2)cn1` [Example 33, (S)-3-amino-N-(5,5-difluoropiperidin-3-yl)-6-(2-(1-(2-hydroxy-2-methylpropyl)-1H-pyrazol-4-yl)pyridin-4-yl)pyrazine-2-carboxamide]: the half-maximal inhibitory concentration (IC50) in assay [1] (setting [4]) was 10000 to 100000 nM; in assay [2] it was > 1000 nM; in assay [3] it was 100 to 1000 nM.

With `CC(C)(O)Cn1cc(-c2ccc(F)c(-c3cnc(N)c(C(=O)N[C@@H]4CNC[C@@H](F)C4)n3)c2)cn1` [Example 35, 3-amino-6-(2-fluoro-5-(1-(2-hydroxy-2-methylpropyl)-1H-pyrazol-4-yl)phenyl)-N-((3S,5S)-5-fluoropiperidin-3-yl)pyrazine-2-carboxamide], the half-maximal inhibitory concentration (IC50) was 10000 to 100000 nM in assay [1] (setting [4]), > 1000 nM in assay [2] and 10 to 100 nM in assay [3].

Regarding `CC(C)(O)Cn1cc(-c2ccc(F)c(-c3cnc(N)c(C(=O)N[C@@H]4CNCC(F)(F)C4)n3)c2)cn1` [Example 36, (S)-3-amino-N-(5,5-difluoropiperidin-3-yl)-6-(2-fluoro-5-(1-(2-hydroxy-2-methylpropyl)-1H-pyrazol-4-yl)phenyl)pyrazine-2-carboxamide], the IC50 in assay [1] (setting [4]) was 10000 to 100000 nM; in assay [2], > 1000 nM; in assay [3], > 1000 nM.

In the case of `Cc1ccc(-c2cnn(CC(C)(C)O)c2)cc1-c1cnc(N)c(C(=O)N[C@@H]2CNC[C@@H](F)C2)n1` [Example 37, 3-amino-N-((3S,5S)-5-fluoropiperidin-3-yl)-6-(5-(1-(2-hydroxy-2-methylpropyl)-1H-pyrazol-4-yl)-2-methylphenyl) pyrazine-2-carboxamide], the IC50 in assay [1] (setting [4]) is > 100000 nM; in assay [2], > 1000 nM; in assay [3] it was 10 to 100 nM.
